Experimental data as given in publication PMC8036666, “Biological and Physico-Chemical Characteristics of Arginine-Rich Peptide Gemini Surfactants with Lysine and Cystine Spacers” (International Journal of Molecular Sciences, 2021).
≈ marks a conversion by molar mass, not a printed value. Where a SMILES comes first, the peptide text is derived from it. Bridges are numbered along the chain shown (N, C = ends). Roman numbers before positions name the chains, in order. Side-chain parts run from the residue outwards. [ ]: non-standard residue; d: D form. The star is where a group is joined. Myristoyl = CCCCCCCCCCCCCC(=O)*; Lauroyl = CCCCCCCCCCCC(=O)*; Nle = CCCC[C@H](N)C(=O)O; Octanoyl = CCCCCCCC(=O)*

Columns and labels:
[1] = system: Pseudomonas aeruginosa ATCC 9027; type: cell-based; conditions: ATCC 9027, 24 h
Protocol: (§1) Biofilm is associated with life-threating infections due to its outstanding resistance to antibiotics. In this study, the antibiofilm characteristics of USCLs and gemini surfactants were evaluated.
(§2) The MBECs were determined as described previously using 96-well polystyrene flat-bottom plates. For this purpose, 24 h cultures of microorganisms were diluted to obtain a final density of 5.0 × 10^5 CFU/mL and 2.0 × 10^5 CFU/mL of bacteria and fungi, respectively. Microorganisms were diluted in MHB or RPMI-1640 with 2% D-glucose (bacteria and fungi, respectively). Briefly, 100 µL of cell suspension was added into the test plates. After 24 h of incubation at 37 °C, the wells were rinsed three times with a PBS (pH 7.4) to remove non-adherent cells. Subsequently, 100 μL of the test compounds in a concentration range (1–512 μg/mL) were added to each well. After 24 h of incubation at 37 °C, 20 μL of a cell viability reagent was added (resazurin, 4 g/L; Sigma Aldrich, St. Louis, MO, USA). The MBEC was read after 1 h. The determined values were recorded as the lowest concentration at which the reduction of resazurin (from blue to pink) was lower or equal to 10 ± 0.5% as compared to the positive (100%) and negative (0%) controls. The reduction was monitored by measuring absorbance at 570 nm (reduced) and 600 nm (oxidized) using a microplate spectrophotometer (Multiskan GO Microplate Spectrophotometer, Thermo Fisher Scientific, Vantaa, Finland). All experiments were conducted in triplicate.

[2] = system: Candida albicans ATCC 10231; type: cell-based; conditions: ATCC 10231, 24 h
Protocol: as §1, §2

[3] = system: Klebsiella aerogenes ATCC 13048; type: cell-based; conditions: ATCC 13048, 24 h
Protocol: as §1, §2

[4] = system: Klebsiella pneumoniae ATCC 700603; type: cell-based; conditions: ATCC 700603, 24 h
Protocol: as §1, §2

[5] = system: Candida glabrata ATCC 15126; type: cell-based; conditions: ATCC 15126, 24 h
Protocol: as §1, §2

[6] = system: Enterococcus faecium ATCC 700221; type: cell-based; conditions: ATCC 700221, 24 h
Protocol: as §1, §2

[7] = system: Staphylococcus aureus ATCC 33591; type: cell-based; conditions: ATCC 33591, 24 h
Protocol: as §1, §2

[8] = system: Acinetobacter baumannii ATCC BAA 1605; type: cell-based; conditions: ATCC BAA 1605, 24 h
Protocol: as §1, §2

[9] = system: Staphylococcus aureus ATCC 25923; type: cell-based; conditions: ATCC 25923, 24 h
Protocol: as §1, §2

[10] = Lipopeptide hydrophobicity by RP-HPLC (adjusted retention time); type: physicochemical; conditions: for Adjusted Retention Time: RP-HPLC, 20–65% acetonitrile over 30 min, indicator of hydrophobicity; for Difference in retention time calculated as tR’C—tR’B: between corresponding surfactants of series C and B
Protocol: The identity of the purified peptides was confirmed with electrospray ionization mass spectrometry (ESI-MS) in positive ion mode. Results of MS analyses and net charge are attached in Supplementary Materials (Table S1). Peptides’ hydrophobicity was evaluated by analytical reversed-phase high-performance liquid chromatography (RP-HPLC). The critical aggregation concentrations (CACs) of the lipopeptides were determined in unbuffered aqueous solution at 298 K by measuring the surface tension as a function of lipopeptide concentration. The measurements were carried out by the Du Noüy ring method on a K100 tensiometer. The surface tension data were plotted against the logarithm of lipopeptide concentration. CAC was found as the intersection of two lines being linear regression of data below and above CAC.
Lipopeptide hydrophobicity was determined as described previously. To do this, a Waters Alliance e2695 system with a Waters 2998 PDA Detector (software-Empower 3, Waters, Milford, MA, USA) was used. All analyses were carried out on a Waters X-Bridge Shield RP-18 column (3.0 × 100 mm, 3.5 μm particle size, 130 Å pore size). The Shield Technology column with embedded polar groups was used to minimize interactions of unreacted silanol groups with basic lipopeptides. The peptides were dissolved in water (0.1% TFA, v/v) up to a concentration of 1 mg/mL. UV detection at 214 nm was used, and samples (10 μL) were eluted with a linear 20–65% acetonitrile gradient in deionized water over 30 min at 25.0 ± 0.1 °C. The mobile phase flow rate was 0.5 mL/min. Both eluents contained 0.1% (v/v) of TFA. Each peptide sample was analyzed in triplicate. The maximum standard deviation and coefficient of variation were 0.044 and 0.85%, respectively.

C. glabrata ATCC 15126 = conditions: ATCC 15126, 24 h
Protocol: (§3) The Acinetobacter baumannii ATCC BAA-1605, Enterococcus faecium ATCC 700221, Escherichia coli ML-35 ATCC 43827, Klebsiella aerogenes ATCC 13048, Klebsiella pneumoniae ATCC 700603, Pseudomonas aeruginosa ATCC 9027, Staphylococcus aureus ATCC 25923, Staphylococcus aureus ATCC 33591, Candida albicans ATCC 10231, Candida glabrata ATCC 15126, strains were acquired from the American Type Culture Collection (ATCC). All the strains were stored at −80 °C in Roti-Store cryo vials and before the tests were transferred into fresh Mueller–Hinton broth (MHB, Biocorp, Warsaw, Poland) for bacteria or RPMI-1640 (Sigma-Aldrich, Steinheim, Germany) for fungi and incubated for 24 h at 37 °C. Then, the cultures were seeded on the Mueller–Hinton agar (BioMaxima, Lublin, Poland) or Sabouraud dextrose agar (SDA, BioMaxima, Lublin, Poland) plates, respectively, and incubated as just mentioned. These agar cultures were used for further microbiological assays. Cell densities for all assays were adjusted spectrophotometrically (Multiskan GO Microplate Spectrophotometer, Thermo Fisher Scientific, Vantaa, Finland) at 600 and 530 nm for bacteria and fungi, respectively.
(§4) The MICs were determined by the broth microdilution method according to the Clinical and Laboratory Standard Institute guidelines. For this purpose, initial inoculums of bacteria (5 × 10^5 CFU/mL) in MHB and yeasts (2 × 10^3 CFU/mL) in RPMI-1640 with 2% D-glucose were exposed to the ranging concentration of lipopeptides (0.5–256 μg/mL) and incubated at 37 °C for 18 h and 24 h, respectively. The experiments were conducted on 96-well microtiter polystyrene plates (Kartell, Noviglio, Italy). The growth was assessed visually after incubation, and the MIC was assumed as the lowest peptide concentration at which a noticeable growth of microorganisms was inhibited. All experiments were conducted in triplicate.

C. albicans ATCC 10231 = conditions: ATCC 10231, 24 h
Protocol: as §3, §4

| Compound | MBEC Pseudomonas aeruginosa ATCC 9027 [1] [µg/mL] | MBEC Candida albicans ATCC 10231 [2] [µg/mL] | MBEC Klebsiella aerogenes ATCC 13048 [3] [µg/mL] | MBEC Klebsiella pneumoniae ATCC 700603 [4] [µg/mL] | MBEC Candida glabrata ATCC 15126 [5] [µg/mL] | MBEC Enterococcus faecium ATCC 700221 [6] [µg/mL] | MBEC Staphylococcus aureus ATCC 33591 [7] [µg/mL] | MBEC Acinetobacter baumannii ATCC BAA 1605 [8] [µg/mL] | MBEC Staphylococcus aureus ATCC 25923 [9] [µg/mL] | Adjusted Retention Time [10] [min] | Difference in retention time calculated as tR’C—tR’B [10] [min] | MIC C. glabrata ATCC 15126 (C. glabrata ATCC 15126) [µg/mL] | MIC C. albicans ATCC 10231 (C. albicans ATCC 10231) [µg/mL] |
| --- | --- | --- | --- | --- | --- | --- | --- | --- | --- | --- | --- | --- | --- |
| CCCCCCCC(=O)N[C@@H](CCCC)C(=O)N[C@@H](CCCNC(=N)N)C(=O)N[C@@H](CCCNC(=N)N)C(=O)N[C@@H](CSSC[C@H](NC(=O)[C@H](CCCNC(=N)N)NC(=O)[C@H](CCCNC(=N)N)NC(=O)[C@H](CCCC)NC(=O)CCCCCCC)C(N)=O)C(N)=O [Compound C6] (I: Octanoyl-[Nle]RRC-NH2 / II: Octanoyl-[Nle]RRC-NH2; disulfide I:4-II:4) | 512 | 256 | 256 | 256 | 512 | 8 | 8 | 512 | 32 | 14.29 | 0.33 | 16 (≈ 11.9 µM) | 16 (≈ 11.9 µM) |
| CCCCCCCC(=O)N[C@@H](CCCC)C(=O)N[C@@H](CCCNC(=N)N)C(=O)N[C@@H](CCCNC(=N)N)C(=O)NCCCC[C@H](NC(=O)[C@H](CCCNC(=N)N)NC(=O)[C@H](CCCNC(=N)N)NC(=O)[C@H](CCCC)NC(=O)CCCCCCC)C(N)=O [Compound B6] (Octanoyl-[Nle]RRK([Arg-Arg-Nle-Octanoyl])-NH2) | 256 | 256 | 256 | 256 | 512 | 8 | 4 | 256 | 16 | 13.96 | – | 16 (≈ 12.8 µM) | 16 (≈ 12.8 µM) |
| CCCCCCCCCCCCCC(=O)N[C@@H](CCCNC(=N)N)C(=O)N[C@@H](CCCNC(=N)N)C(N)=O [Compound A4, C14-RR-NH2] (Myristoyl-Arg-Arg-NH2) | 512 | 64 | 256 | 256 | 256 | 8 | 8 | 256 | 16 | 16.31 | – | 16 (≈ 29.6 µM) | 8 (≈ 14.8 µM) |
| CCCCCCCCCCCC(=O)N[C@@H](CCCNC(=N)N)C(=O)N[C@@H](CCCNC(=N)N)C(=O)N[C@@H](CSSC[C@H](NC(=O)[C@H](CCCNC(=N)N)NC(=O)[C@H](CCCNC(=N)N)NC(=O)CCCCCCCCCCC)C(N)=O)C(N)=O [Compound C3] (I: Lauroyl-Arg-Arg-Cys-NH2 / II: Lauroyl-Arg-Arg-Cys-NH2; disulfide I:3-II:3) | 512 | 16 | 256 | 256 | 128 | 16 | 32 | 512 | 128 | 19.24 | 0.15 | 2 (≈ 1.63 µM) | 1 (≈ 0.815 µM) |
| CCCCCCCCCCCC(=O)N[C@@H](CCCNC(=N)N)C(=O)N[C@@H](CCCNC(=N)N)C(N)=O [Compound A3, C12-RR-NH2] (Lauroyl-Arg-Arg-NH2) | 512 | 128 | 512 | 512 | 512 | 32 | 64 | 512 | 64 | 12.15 | – | 128 (≈ 250 µM) | 64 (≈ 125 µM) |
| CCCCCCCCCCCCCC(=O)N[C@@H](CCCNC(=N)N)C(=O)N[C@@H](CCCNC(=N)N)C(=O)N[C@@H](CSSC[C@H](NC(=O)[C@H](CCCNC(=N)N)NC(=O)[C@H](CCCNC(=N)N)NC(=O)CCCCCCCCCCCCC)C(N)=O)C(N)=O [Compound C4] (I: Myristoyl-Arg-Arg-Cys-NH2 / II: Myristoyl-Arg-Arg-Cys-NH2; disulfide I:3-II:3) | >512 | 16 | 512 | 512 | 64 | 64 | 128 | 512 | 512 | 25.30 | -0.03 | 1 (≈ 0.779 µM) | 2 (≈ 1.56 µM) |
